This note sets out measurements from ChEMBL document CHEMBL2074492, “Selective substrates for non-neuronal monoamine transporters” (Mol Pharmacol, 1999).

The target of data set [1] is T1, Solute carrier family 22 member 2 (Rattus norvegicus, UniProt Q9R0W2).
T1 sequence (Q9R0W2 whole entry): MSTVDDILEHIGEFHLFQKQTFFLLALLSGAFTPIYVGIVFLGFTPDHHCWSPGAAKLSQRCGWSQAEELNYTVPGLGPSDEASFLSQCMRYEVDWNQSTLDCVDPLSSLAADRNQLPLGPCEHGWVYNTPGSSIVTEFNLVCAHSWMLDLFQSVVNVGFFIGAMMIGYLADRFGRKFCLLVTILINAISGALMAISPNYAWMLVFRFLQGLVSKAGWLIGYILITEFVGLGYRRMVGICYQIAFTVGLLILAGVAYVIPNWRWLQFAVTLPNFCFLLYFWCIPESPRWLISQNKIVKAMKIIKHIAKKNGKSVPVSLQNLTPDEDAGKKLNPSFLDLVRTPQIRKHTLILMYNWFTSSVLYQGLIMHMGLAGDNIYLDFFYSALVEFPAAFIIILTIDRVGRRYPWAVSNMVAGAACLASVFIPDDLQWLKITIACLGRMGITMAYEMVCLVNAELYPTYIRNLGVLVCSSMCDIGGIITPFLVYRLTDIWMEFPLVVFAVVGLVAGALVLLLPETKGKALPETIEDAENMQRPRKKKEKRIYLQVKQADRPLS
Nature of the data set: TP_TRANSPORTER: inhibition of MPP+ uptake in OCT2-expressing HEK293 cells. Type of data set: functional, cell-based.

Data set [2] has as its target T1, Solute carrier family 22 member 2. Briefly: (§1) TP_TRANSPORTER: uptake in OCT2-expressing HEK293 cells. The following applies: human. Type of data set: functional, cell-based.
The target of data set [3] is T2, Solute carrier family 22 member 3 (Homo sapiens, UniProt O75751).
T2 sequence (O75751 whole entry): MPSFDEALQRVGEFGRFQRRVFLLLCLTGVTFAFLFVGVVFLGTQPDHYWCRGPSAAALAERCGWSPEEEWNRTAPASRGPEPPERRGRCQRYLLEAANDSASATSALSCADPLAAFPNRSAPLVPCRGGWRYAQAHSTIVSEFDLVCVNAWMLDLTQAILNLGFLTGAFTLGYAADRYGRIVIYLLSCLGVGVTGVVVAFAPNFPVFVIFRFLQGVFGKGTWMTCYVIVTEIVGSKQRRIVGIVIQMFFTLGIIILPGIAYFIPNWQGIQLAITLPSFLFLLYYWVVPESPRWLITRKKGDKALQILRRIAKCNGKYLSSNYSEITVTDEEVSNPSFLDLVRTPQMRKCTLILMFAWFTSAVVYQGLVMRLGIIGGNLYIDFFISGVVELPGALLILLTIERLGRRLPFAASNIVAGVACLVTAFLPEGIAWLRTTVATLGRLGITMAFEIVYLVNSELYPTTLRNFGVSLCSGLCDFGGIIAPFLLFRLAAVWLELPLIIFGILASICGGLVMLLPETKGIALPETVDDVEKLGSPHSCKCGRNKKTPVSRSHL
Nature of the data set: TP_TRANSPORTER: inhibition of MPP+ uptake in OCT3-expressing HEK293 cells.

Data set [4] concerns the target T3, Solute carrier family 22 member 1 (Rattus norvegicus, UniProt Q63089).
T3 sequence (Q63089 whole entry): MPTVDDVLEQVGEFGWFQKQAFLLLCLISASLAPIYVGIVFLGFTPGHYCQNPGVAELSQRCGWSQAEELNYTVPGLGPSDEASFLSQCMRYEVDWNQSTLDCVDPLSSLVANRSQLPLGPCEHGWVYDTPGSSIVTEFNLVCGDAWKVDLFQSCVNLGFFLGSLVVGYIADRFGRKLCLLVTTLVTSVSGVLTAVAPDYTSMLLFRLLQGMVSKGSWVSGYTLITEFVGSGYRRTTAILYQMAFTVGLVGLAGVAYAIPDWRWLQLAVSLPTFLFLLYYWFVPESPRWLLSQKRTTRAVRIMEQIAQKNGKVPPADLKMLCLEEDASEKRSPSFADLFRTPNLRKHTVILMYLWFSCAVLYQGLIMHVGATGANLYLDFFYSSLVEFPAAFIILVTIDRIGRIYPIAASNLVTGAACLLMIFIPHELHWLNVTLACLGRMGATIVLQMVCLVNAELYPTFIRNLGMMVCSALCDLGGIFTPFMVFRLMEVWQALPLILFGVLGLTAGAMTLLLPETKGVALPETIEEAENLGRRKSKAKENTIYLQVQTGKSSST
Briefly: TP_TRANSPORTER: inhibition of MPP+ uptake in OCT1-expressing HEK293 cells.

Substrate in data set [5]: N=C(N)N
The description is as §1. The data set is classed as functional, cell-based.

Substrate in data set [6]: C[n+]1ccc(-c2ccccc2)cc1
The data set is described as §1. The data set is classed as functional, cell-based.

In the case of `N=C(N)N` [GUANIDINE], the inhibition constant (Ki) in data set [1] worked out at 280 µM. For the molecule `CN1CC(=O)NC1=N` [CREATININE], the Activity entry in data set [2] was “substrate [+]”. Same read-out and setting: the result for `CC[N+](CC)(CC)CC` [TETRYLAMMONIUM] reads “substrate [+]”. As to `NCCc1c[nH]cn1` [HISTAMINE], the Ki worked out at 140 µM in data set [3], 390 µM in data set [1] and 1400 µM in data set [4].

B1: Solute carrier family 22 member 2 (Rattus norvegicus) (protein)
chain: MSTVDDILEHIGEFHLFQKQTFFLLALLSGAFTPIYVGIVFLGFTPDHHCWSPGAAKLSQRCGWSQAEELNYTVPGLGPSDEASFLSQCMRYEVDWNQSTLDCVDPLSSLAADRNQLPLGPCEHGWVYNTPGSSIVTEFNLVCAHSWMLDLFQSVVNVGFFIGAMMIGYLADRFGRKFCLLVTILINAISGALMAISPNYAWMLVFRFLQGLVSKAGWLIGYILITEFVGLGYRRMVGICYQIAFTVGLLILAGVAYVIPNWRWLQFAVTLPNFCFLLYFWCIPESPRWLISQNKIVKAMKIIKHIAKKNGKSVPVSLQNLTPDEDAGKKLNPSFLDLVRTPQIRKHTLILMYNWFTSSVLYQGLIMHMGLAGDNIYLDFFYSALVEFPAAFIIILTIDRVGRRYPWAVSNMVAGAACLASVFIPDDLQWLKITIACLGRMGITMAYEMVCLVNAELYPTYIRNLGVLVCSSMCDIGGIITPFLVYRLTDIWMEFPLVVFAVVGLVAGALVLLLPETKGKALPETIEDAENMQRPRKKKEKRIYLQVKQADRPLS
For B1, the Michaelis-Menten constant (Km) amounted to 730 µM in data set [5] and 9.4 µM in data set [6].
